Results from US20160279199A1, “PHARMACEUTICAL COMPOSITION FOR TREATING A METABOLIC SYNDROME” (Sanofi, priority 2010, published 2016).
No end group written: not given here.

Key:
db/db mice [1] = test: Fed blood glucose during treatment of db/db mice; assay type: in vivo, mouse; details: s.c. once daily (AVE0010 0.05, FGF-21 0.75, combination 0.75+0.05 mg·kg−1·day−1), up to 4 weeks, FIG. 6
Experimental: (§1) Female db/db mice (BKS.Cg-m +/+ Leprdb/J, age of 6 weeks) were treated with vehicle (PBS), 0.05 mg·kg^−1·day^−1 AVE0010, 0.75 mg·kg^−1·day^−1 recombinant human FGF-21 (SEQ ID NO: 2) or a combined dose of FGF-21 (SEQ ID NO: 2) and AVE0010 (SEQ ID NO:9), (0.75+0.05 mg·kg^−1·day^−1) subcutaneously once daily. Mice were fed ad libitum. Before the first treatment, after one week and 4 weeks blood glucose and HbA1c were measured under fed conditions. After 21 days of treatment an oral glucose tolerance test (OGTT) was initiated. Fasted mice were orally challenged with 2 g·kg^−1 glucose solution and blood glucose was measured at indicated time points.

db/db mice [2] = test: Oral glucose tolerance test (OGTT) in treated db/db mice; assay type: in vivo, mouse; details: after 21 days s.c. once daily (AVE0010 0.05, FGF-21 0.75, combination 0.75+0.05 mg·kg−1·day−1), fasted, 2 g·kg−1 oral glucose, vs vehicle treated obese control, FIG. 5
Experimental: as §1

Type 2 diabetic patients = details: cited from earlier work; for fasting hyperglycaemia: doses elevating plasma concentrations to approximately 3-4 fold physiological postprandial levels, Type 2 diabetic patients
[3] = human subjects with Type 2 diabetes

AVE0010: GLP-1R agonist peptide, amino acid sequence SEQ ID NO: 9 [reference compound]
blood glucose (db/db mice [1]): inhibition of blood glucose increase | glucose tolerance (OGTT) (db/db mice [2]): small improvement in glucose tolerance

GLP-1(7-36 amide): bioactive GLP-1, amino acid sequence SEQ ID NO: 4 (HAEGTFTSDVSSYLEGQAAKEFIAWLVKGR-NH2)
fasting hyperglycaemia (Type 2 diabetic patients): fully normalizes

GLP-1: gut peptide glucagon-like peptide-1, an incretin hormone (HAEGTFTSDVSSYLEGQAAKEFIAWLVKGR; ends and bridges not checked; UniProt P01275 98-127, looked up)
blood glucose (Type 2 diabetic patients; [3]): reduces | insulin secretion (Type 2 diabetic patients; [3]): stimulates

GLP-1(7-27): bioactive GLP-1 form as printed in b13 (HAEGTFTSDVSSYLEGQAAKE; Glucagon-like peptide 1; UniProt P01275 98-118, looked up, fragment)
fasting hyperglycaemia (Type 2 diabetic patients): fully normalizes
